From the Biogen ADME set (Fang et al. 2023)
≈ marks a conversion by molar mass, not a printed value.

Settings: for aqueous solubility: pH 6.8

Nc1nc2c(N)ncnc2[nH]1
aqueous solubility: 17.8 µg/mL (≈ 119 µM)

CN(C)c1nc(N)nc(Sc2ccccc2)n1
MDR1-MDCK efflux ratio: 0.746
intrinsic clearance, human liver microsomes: 108 mL/min/kg
intrinsic clearance, rat liver microsomes: 642 mL/min/kg
aqueous solubility: 3.11 µg/mL (≈ 12.6 µM)

Cc1ccc2cc(C(=O)N(C)CCC#N)[nH]c2c1
intrinsic clearance, human liver microsomes: 61.8 mL/min/kg
intrinsic clearance, rat liver microsomes: 122 mL/min/kg
aqueous solubility: 4 µg/mL (≈ 16.6 µM)

Nc1ccc(Cl)c(NC2=NN(c3c(Cl)cc(Cl)cc3Cl)C(=O)C2)c1
intrinsic clearance, human liver microsomes: 92.5 mL/min/kg
intrinsic clearance, rat liver microsomes: 702 mL/min/kg
aqueous solubility: 14.1 µg/mL (≈ 34.8 µM)

CCc1cnc(NCc2ccc(CN3CCCC3)cc2)nc1
MDR1-MDCK efflux ratio: 1.06
intrinsic clearance, human liver microsomes: ≤ 4.74 mL/min/kg
intrinsic clearance, rat liver microsomes: 291 mL/min/kg
aqueous solubility: 31.8 µg/mL (≈ 107 µM)

CCOc1ccc(S(=O)(=O)N(CC)CC(=O)Nc2ccc3c(c2)OCO3)cc1
MDR1-MDCK efflux ratio: 0.853
aqueous solubility: 0.44 µg/mL (≈ 1.08 µM)

CNc1ccc(/C=C/C=C/c2nc3ccc(O)cc3s2)cn1
aqueous solubility: 0.22 µg/mL (≈ 0.711 µM)

CC(C)(C)n1cc(CNc2cccnc2)cn1
MDR1-MDCK efflux ratio: 0.564
intrinsic clearance, human liver microsomes: ≤ 4.74 mL/min/kg
intrinsic clearance, rat liver microsomes: 41.7 mL/min/kg
aqueous solubility: 25.4 µg/mL (≈ 111 µM)

CN(C(=O)c1cccc(C(=O)O)c1)c1ccccc1
intrinsic clearance, human liver microsomes: ≤ 4.74 mL/min/kg
intrinsic clearance, rat liver microsomes: ≤ 10.7 mL/min/kg

CN(C(=O)c1cncc(F)c1)c1cccc2ncccc12
MDR1-MDCK efflux ratio: 2.74
intrinsic clearance, human liver microsomes: 22.2 mL/min/kg
intrinsic clearance, rat liver microsomes: 134 mL/min/kg
aqueous solubility: 61.8 µg/mL (≈ 220 µM)

NCc1cccnc1OCc1ccccc1
MDR1-MDCK efflux ratio: 0.434
intrinsic clearance, human liver microsomes: 11.7 mL/min/kg
intrinsic clearance, rat liver microsomes: 747 mL/min/kg
aqueous solubility: 25.5 µg/mL (≈ 119 µM)

CCc1nccn1Cc1nc(N)nc(N(C)C)n1
MDR1-MDCK efflux ratio: 18.5
intrinsic clearance, human liver microsomes: ≤ 4.74 mL/min/kg
intrinsic clearance, rat liver microsomes: 17.3 mL/min/kg

C[C@@H]1NC(=O)N(CCC2Cc3ccccc3C2)C1=O
MDR1-MDCK efflux ratio: 0.771
intrinsic clearance, human liver microsomes: ≤ 4.74 mL/min/kg
intrinsic clearance, rat liver microsomes: 193 mL/min/kg

N#Cc1cnc2ccccc2c1OCCO
intrinsic clearance, human liver microsomes: 10.4 mL/min/kg
intrinsic clearance, rat liver microsomes: 12.7 mL/min/kg

CCS(=O)(=O)Cc1ccn(-c2cccc(F)c2)n1
MDR1-MDCK efflux ratio: 0.632
intrinsic clearance, human liver microsomes: ≤ 4.74 mL/min/kg
intrinsic clearance, rat liver microsomes: 38.7 mL/min/kg
aqueous solubility: 49.2 µg/mL (≈ 183 µM)

CC(=O)NCc1ncc(-c2ccccc2C(=O)O)cn1
intrinsic clearance, human liver microsomes: ≤ 4.74 mL/min/kg
intrinsic clearance, rat liver microsomes: ≤ 10.7 mL/min/kg
aqueous solubility: 59.4 µg/mL (≈ 219 µM)

O=C(NCc1ccc(F)cc1)C1(Cc2ccc(-c3cccnc3)cc2)CCOCC1
MDR1-MDCK efflux ratio: 4.82
intrinsic clearance, human liver microsomes: 781 mL/min/kg
intrinsic clearance, rat liver microsomes: 1970 mL/min/kg
aqueous solubility: 87.5 µg/mL (≈ 216 µM)

CNC(=O)c1ccc2c(c1)CCO[C@H]2CCN1CCN(c2ccc(C(N)=O)cc2)CC1
MDR1-MDCK efflux ratio: 21.5
intrinsic clearance, human liver microsomes: ≤ 4.74 mL/min/kg
intrinsic clearance, rat liver microsomes: ≤ 10.7 mL/min/kg
aqueous solubility: 90 µg/mL (≈ 213 µM)

CCCn1ccnc1CNc1nc2c(s1)c(C)nn2C
MDR1-MDCK efflux ratio: 8.95
intrinsic clearance, human liver microsomes: 6.75 mL/min/kg
intrinsic clearance, rat liver microsomes: 129 mL/min/kg
aqueous solubility: 31 µg/mL (≈ 107 µM)

CC(=O)N[C@H]1CCN(C(=O)N[C@H](C)C(c2ccccc2)c2ccccc2)C1
MDR1-MDCK efflux ratio: 113
intrinsic clearance, human liver microsomes: 63.6 mL/min/kg
intrinsic clearance, rat liver microsomes: 825 mL/min/kg

CC(C)N1CCN(CCCSc2ccccn2)CC1
MDR1-MDCK efflux ratio: 0.74
intrinsic clearance, human liver microsomes: 128 mL/min/kg
intrinsic clearance, rat liver microsomes: 1080 mL/min/kg

CCn1nc(CNC(=O)c2nc(C)c[nH]2)c2ccccc21
MDR1-MDCK efflux ratio: 5.37
intrinsic clearance, human liver microsomes: 11.2 mL/min/kg
intrinsic clearance, rat liver microsomes: 236 mL/min/kg

CC(C(=O)Nc1ccccc1)N1CCCC(c2nc3ccccc3o2)C1 (stereo not given)
MDR1-MDCK efflux ratio: 0.831
intrinsic clearance, rat liver microsomes: 3000 mL/min/kg
aqueous solubility: 26.9 µg/mL (≈ 76.8 µM)

O=C(c1cccc(CNc2ccc3nccnc3n2)c1)N1CCCCC1
MDR1-MDCK efflux ratio: 37.4
intrinsic clearance, human liver microsomes: 13.9 mL/min/kg
intrinsic clearance, rat liver microsomes: 146 mL/min/kg
aqueous solubility: 56.3 µg/mL (≈ 162 µM)

Cn1nccc1CC1CCN(C2CCCC2)CC1
MDR1-MDCK efflux ratio: 0.94
intrinsic clearance, human liver microsomes: ≤ 4.74 mL/min/kg
intrinsic clearance, rat liver microsomes: 258 mL/min/kg
aqueous solubility: 26.2 µg/mL (≈ 106 µM)

CCCN(C(=O)c1c(CC)noc1C)C1Cc2ccccc2C1
MDR1-MDCK efflux ratio: 0.947
intrinsic clearance, human liver microsomes: 182 mL/min/kg
intrinsic clearance, rat liver microsomes: 2380 mL/min/kg
aqueous solubility: 37.3 µg/mL (≈ 119 µM)

NC(=O)c1ccc(N2CCCCC2)c(NC(=O)c2ncoc2-c2ccc3ccccc3c2)c1
MDR1-MDCK efflux ratio: 0.519
aqueous solubility: 0.24 µg/mL (≈ 0.545 µM)

CN(CCN(C)C1CCCC1)C(=O)c1ccc(-c2nc[nH]n2)cc1
intrinsic clearance, human liver microsomes: ≤ 4.74 mL/min/kg
intrinsic clearance, rat liver microsomes: 19.6 mL/min/kg
aqueous solubility: 36.8 µg/mL (≈ 112 µM)

Cc1cc(NC2CCCC2)nc(C2CCNCC2)n1
MDR1-MDCK efflux ratio: 66.7
intrinsic clearance, human liver microsomes: ≤ 4.74 mL/min/kg
intrinsic clearance, rat liver microsomes: 24.8 mL/min/kg
aqueous solubility: 71.4 µg/mL (≈ 274 µM)

O=C(CCc1ccc2c(c1)OCO2)Nc1nc2c(s1)CCC2
MDR1-MDCK efflux ratio: 0.236
intrinsic clearance, human liver microsomes: 97.4 mL/min/kg
intrinsic clearance, rat liver microsomes: 593 mL/min/kg
aqueous solubility: 11.6 µg/mL (≈ 36.5 µM)

Cc1ccc(-c2ccccc2-c2nc3c(cnn3C3CCN(C)CC3)[nH]2)o1
MDR1-MDCK efflux ratio: 40.1
intrinsic clearance, human liver microsomes: ≤ 4.74 mL/min/kg
intrinsic clearance, rat liver microsomes: 100 mL/min/kg
aqueous solubility: 40.5 µg/mL (≈ 112 µM)

O=C(Nc1ccc(C(F)(F)F)cc1)c1ccccn1
intrinsic clearance, human liver microsomes: 31.9 mL/min/kg
intrinsic clearance, rat liver microsomes: 165 mL/min/kg

CC(C)[C@H](Nc1ncc(Cl)cn1)C(=O)N1CCCC1
MDR1-MDCK efflux ratio: 1.08
intrinsic clearance, human liver microsomes: 15.4 mL/min/kg
intrinsic clearance, rat liver microsomes: 181 mL/min/kg
aqueous solubility: 36.2 µg/mL (≈ 128 µM)

OCCC1(CNc2ncc(Br)cn2)CC1
MDR1-MDCK efflux ratio: 0.674
intrinsic clearance, human liver microsomes: 8.65 mL/min/kg
intrinsic clearance, rat liver microsomes: 81.9 mL/min/kg

CNC(=O)c1cccc(Cn2nnc(-c3ccccc3Cl)n2)c1
MDR1-MDCK efflux ratio: 9.33
intrinsic clearance, human liver microsomes: 16.5 mL/min/kg
intrinsic clearance, rat liver microsomes: 775 mL/min/kg
aqueous solubility: 22.9 µg/mL (≈ 70 µM)

CC(C)N1CCN(CCCSc2ncc[nH]2)CC1
intrinsic clearance, human liver microsomes: ≤ 4.74 mL/min/kg
intrinsic clearance, rat liver microsomes: 87.1 mL/min/kg

COc1ccc(=O)n(Cc2noc3c2CCCC3)n1
MDR1-MDCK efflux ratio: 0.806
intrinsic clearance, human liver microsomes: 11.4 mL/min/kg
intrinsic clearance, rat liver microsomes: 270 mL/min/kg

CN(C)c1cc(CNC(=O)C2CCOCC2)ccn1
MDR1-MDCK efflux ratio: 4.87
intrinsic clearance, human liver microsomes: ≤ 4.74 mL/min/kg
intrinsic clearance, rat liver microsomes: ≤ 10.7 mL/min/kg
aqueous solubility: 41.2 µg/mL (≈ 156 µM)

CN1CCN(S(=O)(=O)Cc2ccc(Cl)c(Cl)c2)CC1
MDR1-MDCK efflux ratio: 0.562
intrinsic clearance, human liver microsomes: 33.9 mL/min/kg
intrinsic clearance, rat liver microsomes: 887 mL/min/kg

O=C(c1ccc(F)cc1)N1CCN(CC(=O)N2CCCC2=O)CC1
MDR1-MDCK efflux ratio: 10.4
intrinsic clearance, human liver microsomes: ≤ 4.74 mL/min/kg
intrinsic clearance, rat liver microsomes: 14.1 mL/min/kg
aqueous solubility: 94.8 µg/mL (≈ 284 µM)

CC(=O)N1CCN(C(=O)c2ccc(-c3ccc(F)cc3)cc2F)CC1
MDR1-MDCK efflux ratio: 1.47
intrinsic clearance, human liver microsomes: ≤ 4.74 mL/min/kg
intrinsic clearance, rat liver microsomes: 20 mL/min/kg
aqueous solubility: 74.5 µg/mL (≈ 216 µM)

O=C(C1CC1)N1CC[C@@H](Cc2n[nH]c(=O)n2-c2ccc(-c3ccc4occc4c3)cc2)C1
MDR1-MDCK efflux ratio: 61.1
intrinsic clearance, human liver microsomes: 20.4 mL/min/kg
intrinsic clearance, rat liver microsomes: 101 mL/min/kg
aqueous solubility: 40.1 µg/mL (≈ 93.6 µM)

CC(=O)Nc1ccc(S(=O)(=O)NC2=NCN(Cc3ccccc3)CN2)cc1
intrinsic clearance, human liver microsomes: ≤ 4.74 mL/min/kg
intrinsic clearance, rat liver microsomes: ≤ 10.7 mL/min/kg
aqueous solubility: 61 µg/mL (≈ 157 µM)

Nc1nc(N)c2c(OCC3CCN(Cc4c(Cl)cccc4Cl)CC3)cccc2n1
MDR1-MDCK efflux ratio: 0.816
aqueous solubility: 0.4 µg/mL (≈ 0.925 µM)

CON(C)C(=O)CCc1c(C)nn(C)c1C
MDR1-MDCK efflux ratio: 1.33
intrinsic clearance, human liver microsomes: ≤ 4.74 mL/min/kg
intrinsic clearance, rat liver microsomes: 28.3 mL/min/kg
aqueous solubility: 34.2 µg/mL (≈ 152 µM)

Cn1cc(-c2nc(C(=O)Nc3cccnc3-n3cncn3)cs2)cn1
aqueous solubility: 1.92 µg/mL (≈ 5.43 µM)

O=C(NCCc1ccc2c(c1)OCO2)C1CCCC1
MDR1-MDCK efflux ratio: 0.69
intrinsic clearance, human liver microsomes: 27.6 mL/min/kg
intrinsic clearance, rat liver microsomes: 600 mL/min/kg
aqueous solubility: 42.1 µg/mL (≈ 161 µM)

Cc1nc(-c2cc(C)on2)n(CCc2ccccc2)n1
MDR1-MDCK efflux ratio: 0.6
intrinsic clearance, human liver microsomes: 92.1 mL/min/kg
intrinsic clearance, rat liver microsomes: 3950 mL/min/kg
aqueous solubility: 21.5 µg/mL (≈ 80.2 µM)

NC(=O)COc1ccccc1C(=O)Nc1cccc(-c2ccc3ccccc3c2)n1
MDR1-MDCK efflux ratio: 0.296
intrinsic clearance, human liver microsomes: 54.8 mL/min/kg
intrinsic clearance, rat liver microsomes: 1060 mL/min/kg

Cc1cc(C)c(S(=O)(=O)Nc2ccc3c(c2)OCO3)c(C)c1-n1cnnn1
MDR1-MDCK efflux ratio: 24.1
aqueous solubility: 17.8 µg/mL (≈ 46 µM)

CCCNS(=O)(=O)Nc1ncnc(OCCOc2ncc(Br)cn2)c1-c1ccc(Br)cc1
MDR1-MDCK efflux ratio: 0.933
intrinsic clearance, human liver microsomes: 101 mL/min/kg
intrinsic clearance, rat liver microsomes: 631 mL/min/kg

CN(C)C(=O)OCCN1CCC(c2c[nH]c3ncccc23)CC1
MDR1-MDCK efflux ratio: 6.4
intrinsic clearance, human liver microsomes: 29.6 mL/min/kg
intrinsic clearance, rat liver microsomes: 101 mL/min/kg
aqueous solubility: 50 µg/mL (≈ 158 µM)

COc1cc2c(cc1OC)[C@@H]1Cc3ccc(OC)c(OC)c3CN1CC2
MDR1-MDCK efflux ratio: 0.542
intrinsic clearance, human liver microsomes: 5.78 mL/min/kg
intrinsic clearance, rat liver microsomes: 85.5 mL/min/kg

Cc1noc(C)c1CS(=O)(=O)Cc1cccc2c1OCCO2
MDR1-MDCK efflux ratio: 2.46
intrinsic clearance, human liver microsomes: 39.8 mL/min/kg
intrinsic clearance, rat liver microsomes: 2290 mL/min/kg
aqueous solubility: 53.3 µg/mL (≈ 165 µM)

Cc1cc(C(=O)NC2CCN(C(=O)c3cc(C)sc3C)CC2)no1
MDR1-MDCK efflux ratio: 1.56
intrinsic clearance, human liver microsomes: 9.77 mL/min/kg
intrinsic clearance, rat liver microsomes: 93.7 mL/min/kg
aqueous solubility: 61.2 µg/mL (≈ 176 µM)

OC[C@H](Nc1cncc(-c2ccc3[nH]ncc3n2)c1)c1ccccc1
MDR1-MDCK efflux ratio: 25
fraction unbound, human plasma: 0.104
fraction unbound, rat plasma: 0.106
intrinsic clearance, human liver microsomes: 9.8 mL/min/kg
intrinsic clearance, rat liver microsomes: 330 mL/min/kg
aqueous solubility: 32.7 µg/mL (≈ 98.6 µM)

CC(C)(C)c1cc(NC(=O)c2cccc3cn[nH]c23)[nH]n1
MDR1-MDCK efflux ratio: 1.55
intrinsic clearance, human liver microsomes: 9.85 mL/min/kg
intrinsic clearance, rat liver microsomes: 176 mL/min/kg
aqueous solubility: 1.78 µg/mL (≈ 6.28 µM)

OCCOc1ccccc1OCc1ncc(Cl)cc1Cl
MDR1-MDCK efflux ratio: 0.551
intrinsic clearance, human liver microsomes: 48.5 mL/min/kg
intrinsic clearance, rat liver microsomes: 319 mL/min/kg

Fc1ccccc1CNc1nc(-c2ccccc2)no1
MDR1-MDCK efflux ratio: 0.605
intrinsic clearance, human liver microsomes: 24.5 mL/min/kg
intrinsic clearance, rat liver microsomes: 131 mL/min/kg
aqueous solubility: 3.51 µg/mL (≈ 13 µM)
